In patent US20250163104A1, “MACROCYCLIC IMMUNOMODULATORS” (priority 2021, published 2025):
Where a SMILES comes first, the peptide text is derived from it. Bridges are numbered along the chain shown (N, C = ends). [ ]: non-standard residue; d: D form. The star is where a group is joined. Ala(morpholin-4-yl) = N[C@@H](CN1CCOCC1)C(=O)O; Phe(4-COOH) = N[C@@H](Cc1ccc(C(=O)O)cc1)C(=O)O; Bip = N[C@@H](Cc1ccc(-c2ccccc2)cc1)C(=O)O; Phe(3-Me) = Cc1cccc(C[C@H](N)C(=O)O)c1; Val(3-OH) = CC(C)(O)[C@H](N)C(=O)O; Cha = N[C@@H](CC1CCCCC1)C(=O)O; Carboxymethyl = O=C(O)C*; Orn = NCCC[C@H](N)C(=O)O; Pra = C#CC[C@H](N)C(=O)O; Dab = NCC[C@H](N)C(=O)O; Dap = NC[C@H](N)C(=O)O

biological target: T1, human PD-1 / PD-L1-Ig binding on Jurkat cell line over-expressing human PD-1 (Jurkat-PD-1) (Homo sapiens, UniProt Q15116); assay: Jurkat-PD-1 Cell Binding High-Content Screening Assay (CBA); assay type: cell-based; settings: Jurkat-PD-1 cells, PE-labeled PD-L1-Ig 20 nM final; read-out: Jurkat HPD1_PDL1 IC50
T1 construct: expressed in transfected cells; host or cells: Jurkat
T1 sequence (Q15116 25-288): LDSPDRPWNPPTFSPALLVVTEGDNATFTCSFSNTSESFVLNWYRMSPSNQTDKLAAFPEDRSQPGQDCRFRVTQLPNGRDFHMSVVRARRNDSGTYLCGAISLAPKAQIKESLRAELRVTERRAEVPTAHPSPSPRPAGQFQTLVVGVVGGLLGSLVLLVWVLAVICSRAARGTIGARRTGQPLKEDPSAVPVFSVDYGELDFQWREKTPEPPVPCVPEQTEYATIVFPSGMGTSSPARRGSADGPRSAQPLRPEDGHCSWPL
Procedure, shortened: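 Binding of fluorescent PD-L1-Ig (phycoerythrin linked via the Ig tag, 20 nM final) to PD-1-overexpressing Jurkat cells was imaged after a 2 h, 37° C compound pretreatment and 1 hour ligand incubation.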

Row | SMILES | IC50
1 | C#CC[C@H](NC(=O)[C@H](CCN)NC(=O)[C@@H]1CSCC(=O)N[C@@H](CN)C(=O)N[C@@H](Cc2ccc(OCC(=O)O)cc2)C(=O)N[C@@H](CC(=O)O)C(=O)N[C@@H](Cc2cccc(C)c2)C(=O)N[C@@H](Cc2ccc(OCC(=O)O)cc2)C(=O)N[C@@H](Cc2ccc(-c3ccccc3)cc2)C(=O)N[C@@H](Cc2ccc(OCC(=O)O)cc2)C(=O)N[C@@H](CCCN)C(=O)N[C@H](CC(C)C)C(=O)N[C@@H](CCN)C(=O)N[C@@H](CC2CCCCC2)C(=O)N[C@@H](C(C)(C)O)C(=O)N[C@@H]([C@@H](C)O)C(=O)N1)C(N)=O [Compound 1858] ({CH2CO}-[Dap]Y(Carboxymethyl)D[Phe(3-Me)]Y(Carboxymethyl)[Bip]Y(Carboxymethyl)[Orn][dL][Dab][Cha][Val(3-OH)]TC[Dab][Pra]-NH2; thioether N-14) | 5 nM
2 | C#CC[C@H](NC(=O)[C@H](CCN)NC(=O)[C@@H]1CSCC(=O)N[C@@H](CN2CCOCC2)C(=O)N[C@@H](Cc2ccc(OCC(=O)O)cc2)C(=O)N[C@@H](CC(=O)O)C(=O)N[C@@H](Cc2cccc(C)c2)C(=O)N[C@@H](Cc2ccc(OCC(=O)O)cc2)C(=O)N[C@@H](Cc2ccc(-c3ccccc3)cc2)C(=O)N[C@@H](Cc2ccc(OCC(=O)O)cc2)C(=O)N[C@@H](CCCN)C(=O)N[C@H](CC(C)C)C(=O)N[C@@H](CCN)C(=O)N[C@@H](CC2CCCCC2)C(=O)N[C@@H](C(C)(C)O)C(=O)N[C@@H]([C@@H](C)O)C(=O)N1)C(N)=O [Compound 1859] ({CH2CO}-[Ala(morpholin-4-yl)]Y(Carboxymethyl)D[Phe(3-Me)]Y(Carboxymethyl)[Bip]Y(Carboxymethyl)[Orn][dL][Dab][Cha][Val(3-OH)]TC[Dab][Pra]-NH2; thioether N-14) | 2.1 nM
3 | C#CC[C@H](NC(=O)[C@H](CCN)NC(=O)[C@@H]1CSCC(=O)N[C@@H](CN)C(=O)N[C@@H](Cc2ccc(OCC(=O)O)cc2)C(=O)N[C@@H](CC(=O)O)C(=O)N[C@@H](Cc2cccc(C)c2)C(=O)N[C@@H](Cc2ccc(OCC(=O)O)cc2)C(=O)N[C@@H](Cc2ccc(-c3ccccc3)cc2)C(=O)N[C@@H](Cc2ccc(OCC(=O)O)cc2)C(=O)N[C@@H](CCCN)C(=O)N[C@H](CC(C)C)C(=O)N[C@@H](CCN)C(=O)N[C@@H](CC2CCCCC2)C(=O)N[C@@H](C(C)(C)O)C(=O)N[C@@H](CO)C(=O)N1)C(N)=O [Compound 1860] ({CH2CO}-[Dap]Y(Carboxymethyl)D[Phe(3-Me)]Y(Carboxymethyl)[Bip]Y(Carboxymethyl)[Orn][dL][Dab][Cha][Val(3-OH)]SC[Dab][Pra]-NH2; thioether N-14) | 3.9 nM
4 | C#CC[C@H](NC(=O)[C@H](CCN)NC(=O)[C@@H]1CSCC(=O)N[C@@H](CN)C(=O)N[C@@H](Cc2ccc(OCC(=O)O)cc2)C(=O)N[C@@H](CC(=O)O)C(=O)N[C@@H](Cc2cccc(C)c2)C(=O)N[C@@H](Cc2ccc(OCC(=O)O)cc2)C(=O)N[C@@H](Cc2ccc(-c3ccccc3)cc2)C(=O)N[C@@H](Cc2ccc(OCC(=O)O)cc2)C(=O)N[C@@H](CCCN)C(=O)N[C@H](CC(C)C)C(=O)N[C@@H](CCN)C(=O)N[C@@H](CC2CCCCC2)C(=O)N[C@@H](C(C)C)C(=O)N[C@@H](CO)C(=O)N1)C(N)=O [Compound 1861] ({CH2CO}-[Dap]Y(Carboxymethyl)D[Phe(3-Me)]Y(Carboxymethyl)[Bip]Y(Carboxymethyl)[Orn][dL][Dab][Cha]VSC[Dab][Pra]-NH2; thioether N-14) | 10.8 nM
5 | C#CC[C@H](NC(=O)[C@H](CCN)NC(=O)[C@@H]1CSCC(=O)N[C@@H](CN)C(=O)N[C@@H](Cc2ccc(C(=O)O)cc2)C(=O)N[C@@H](CC(=O)O)C(=O)N[C@@H](Cc2cccc(C)c2)C(=O)N[C@@H](Cc2ccc(C(=O)O)cc2)C(=O)N[C@@H](Cc2ccc(-c3ccccc3)cc2)C(=O)N[C@@H](Cc2ccc(C(=O)O)cc2)C(=O)N[C@@H](CCCN)C(=O)N[C@H](CC(C)C)C(=O)N[C@@H](CCN)C(=O)N[C@@H](CC2CCCCC2)C(=O)N[C@@H](C(C)(C)O)C(=O)N[C@@H](Cc2cnc[nH]2)C(=O)N1)C(N)=O [Compound 1862] ({CH2CO}-[Dap][Phe(4-COOH)]D[Phe(3-Me)][Phe(4-COOH)][Bip][Phe(4-COOH)][Orn][dL][Dab][Cha][Val(3-OH)]HC[Dab][Pra]-NH2; thioether N-14) | 7.4 nM
6 | C#CC[C@H](NC(=O)[C@H](CCN)NC(=O)[C@@H]1CSCC(=O)N[C@@H](CN2CCOCC2)C(=O)N[C@@H](Cc2ccc(OCC(=O)O)cc2)C(=O)N[C@@H](CC(=O)O)C(=O)N[C@@H](Cc2cccc(C)c2)C(=O)N[C@@H](Cc2ccc(OCC(=O)O)cc2)C(=O)N[C@@H](Cc2ccc(-c3ccccc3)cc2)C(=O)N[C@@H](Cc2ccc(OCC(=O)O)cc2)C(=O)N[C@@H](CCCN)C(=O)N[C@H](CC(C)C)C(=O)N[C@@H](CCN)C(=O)N[C@@H](CC2CCCCC2)C(=O)N[C@@H](C(C)C)C(=O)N[C@@H](CO)C(=O)N1)C(N)=O [Compound 1863] ({CH2CO}-[Ala(morpholin-4-yl)]Y(Carboxymethyl)D[Phe(3-Me)]Y(Carboxymethyl)[Bip]Y(Carboxymethyl)[Orn][dL][Dab][Cha]VSC[Dab][Pra]-NH2; thioether N-14) | 4.3 nM
7 | C#CC[C@H](NC(=O)[C@H](CCN)NC(=O)[C@@H]1CSCC(=O)N[C@@H](CCCN)C(=O)N[C@@H](Cc2ccc(C(=O)O)cc2)C(=O)N[C@@H](CC(=O)O)C(=O)N[C@@H](Cc2cccc(C)c2)C(=O)N[C@@H](Cc2ccc(C(=O)O)cc2)C(=O)N[C@@H](Cc2ccc(-c3ccccc3)cc2)C(=O)N[C@@H](Cc2ccc(C(=O)O)cc2)C(=O)N[C@@H](CCCN)C(=O)N[C@H](CC(C)C)C(=O)N[C@@H](CCN)C(=O)N[C@@H](CC2CCCCC2)C(=O)N[C@@H](C(C)(C)O)C(=O)N[C@@H](CCCN)C(=O)N1)C(N)=O [Compound 1864] ({CH2CO}-[Orn][Phe(4-COOH)]D[Phe(3-Me)][Phe(4-COOH)][Bip][Phe(4-COOH)][Orn][dL][Dab][Cha][Val(3-OH)][Orn]C[Dab][Pra]-NH2; thioether N-14) | 16.5 nM
8 | C#CC[C@H](NC(=O)[C@H](CCN)NC(=O)[C@@H]1CSCC(=O)N[C@@H](CCN)C(=O)N[C@@H](Cc2ccc(C(=O)O)cc2)C(=O)N[C@@H](CC(=O)O)C(=O)N[C@@H](Cc2cccc(C)c2)C(=O)N[C@@H](Cc2ccc(C(=O)O)cc2)C(=O)N[C@@H](Cc2ccc(-c3ccccc3)cc2)C(=O)N[C@@H](Cc2ccc(C(=O)O)cc2)C(=O)N[C@@H](CCCN)C(=O)N[C@H](CC(C)C)C(=O)N[C@@H](CCN)C(=O)N[C@@H](CC2CCCCC2)C(=O)N[C@@H](C(C)(C)O)C(=O)N[C@@H](CO)C(=O)N1)C(N)=O [Compound 1865] ({CH2CO}-[Dab][Phe(4-COOH)]D[Phe(3-Me)][Phe(4-COOH)][Bip][Phe(4-COOH)][Orn][dL][Dab][Cha][Val(3-OH)]SC[Dab][Pra]-NH2; thioether N-14) | 12 nM
9 | CC(C)C[C@@H]1NC(=O)[C@H](Cc2c[nH]c3ccccc23)NC(=O)[C@H](CC(=O)O)NC(=O)[C@H](Cc2ccc(O)cc2)NC(=O)[C@H](Cc2ccccc2)NC(=O)CSC[C@@H](C(=O)N[C@@H](C)C(N)=O)NC(=O)[C@H](CO)NC(=O)[C@H](C(C)C)NC(=O)[C@H](CC(C)C)NC(=O)[C@H](CC(N)=O)NC(=O)[C@@H](C)NC(=O)[C@@H](CCCCN)NC(=O)[C@H](C(C)C)NC(=O)[C@H](Cc2ccc(-c3ccccc3)cc2)NC1=O [Compound 2000] ({CH2CO}-FYDWL[Bip]V[dK][dA]NLVSCA-NH2; thioether N-14) | 39.4 nM
